Data: publication PMC11823594, “Durlobactam in combination with β-lactams to combat Mycobacterium abscessus” (Antimicrobial Agents and Chemotherapy, 2024)
Values after ≈ are worked out from the molar mass of the structure shown. Like-named read-outs stand apart in the source and are kept apart here. One block for each molecule: values may come before it.

How the values were obtained:
Mab ATCC 19977 strain = assay: MIC testing (CLSI, Middlebrook 7H9 broth); format: cell-based, Mycobacterium abscessus; settings: for MIC: Mycobacteroides abscessus, read-out: MIC, alone
[1] = Predicted average unbound steady-state plasma concentration (fCss,avg) at clinically relevant doses; design: species or system human
LDT2 [2] = target: T1, LDT2 (Mycobacterium abscessus, UniProt B1MMQ4); assay: Circular dichroism spectroscopy; format: binding; settings: 5 µM LDT2, 10 µM β-lactam, 2 h, 25°C
Protocol: The circular dichroism spectra of LDT2 (5 µM in PBS buffer) were recorded on a circular dichroism spectrometer with a 2 mm path length, both in the absence and presence of 10 µM imipenem, ceftaroline, sulopenem, and cefuroxime at 25°C. To ensure the detection of conformational changes, LDT2 and the β-lactams were incubated at room temperature for 2 h. The contribution of each β-lactam alone was subtracted in each case.

BlaMab = BlaMab (Mycobacterium abscessus, UniProt B1MCI3); assay: Ki,app for the β-lactamase; format: biochemical
DDC = DDC (Mycobacteroides abscessus, UniProt B1MDJ1); assay: Steady-state kinetics with nitrocefin (Ki,app); format: biochemical; settings: in parentheses in Table 3;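 note: Parenthesised value is the fCss,avg to Ki,app ratio where above 1 means target likely hit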
Protocol: (§1) Steady-state kinetic studies were conducted using purified LDTs and PBPs (LDT1-5, PBP B, PBP-lipo, and DDC) as previously described ([20]). The assays were performed using a BioTek Synergy2 multimode reader in conjunction with Gen5 analysis software. […] To determine reaction velocities, a 0.25 cm path length was employed. The steady-state kinetic parameters (Vmax, kcat, and Km) were obtained by fitting the data to the Henri-Michaelis-Menten equation using a nonlinear least-squares fit in Origin 8.1 software (OriginLab, Northampton, MA). The reaction rate (v) at a given substrate concentration ([S]) was calculated according to the following equations: […]
(§2) Changes in absorbance at 482 nm were measured over a period of 0–30 min for each concentration of β-lactams and BLIs. Data were linearized using a Dixon plot, plotting the inverse changes in absorbance (1/ΔA) against the concentrations of β-lactams and BLIs. The observed Ki,app was determined directly from the Dixon plot, and these values were corrected for substrate concentration and affinity for the LDT using the following equation:
(§3) Ki,app=observed Ki,app/1+[NCF]/Km NCF

PBP B = PBP B (Mycobacterium abscessus, UniProt B1MP31); assay: Steady-state kinetics with nitrocefin (Ki,app); format: biochemical;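 for Ratio of fCss,avg to Ki,app, PBP B: Parenthesised value is the fCss,avg to Ki,app ratio where above 1 means target likely hit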
Protocol: as §1, §2, §3

LDT5 = LDT5 (Mycobacterium abscessus, UniProt B1MM58); assay: Steady-state kinetics with nitrocefin (Ki,app); format: biochemical; settings: in parentheses in Table 3
Protocol: as §1, §2, §3

PBP-lipo [3] = target: T2, PBP-lipo (Mycobacteroides abscessus, UniProt B1MDC3); assay: Bocillin-FL binding assay; settings: 2 h incubation, 1:10 molar ratio
T2 construct: made in house; host or cells: Escherichia coli BL21 (DE3)
Protocol: To analyze the binding of PBP-lipo with β-lactams or BLIs, purified PBP-lipo (4 µg) was incubated with β-lactams or BLIs at a 1:10 molar ratio in a buffer containing 10 mM sodium phosphate (pH 7.4) and 150 mM NaCl. The incubation was carried out for 2 h at room temperature. After the initial incubation, 1 µM Bocillin FL was added to the reaction mixture. The incubation was continued for an additional 3–4 h at 37°C. After incubation, the samples were boiled to denature the proteins. The samples were then subjected to SDS-PAGE. The PBP-lipo:Bocillin complexes were visualized by fluorescence analysis at a wavelength of 488 nm using an Azure 300 gel imaging system. The intensity of the PBP-lipo:Bocillin complex bands was analyzed using GelAnalyzer software. The intensity of the band for PBP-lipo alone (without β-lactams) was set to 1 as the highest intensity. The intensity of each band for PBP-lipo incubated with β-lactams was then normalized by dividing by the intensity of the band for PBP-lipo alone.

LDT3 = LDT3 (Mycobacterium abscessus, UniProt B1MHQ4); assay: Mass spectrometry of covalent adduct formation; format: binding; settings: protein:drug 1:20, 2 h; mass accuracy ±5 Da; (−) = no change
Protocol: Truncated sequences of LDT1-5, DDC, PBP B, and PBP-lipo (Δ1–41) were generated by Celtek Biosciences and cloned into the pET28(a) + vector with a tobacco etch virus (TEV) protease cleavage site before the start codon. Clones were transformed into Escherichia coli BL21 (DE3) and grown to an OD600 of 0.6–0.8. Protein expression was induced with 0.25 mM isopropyl β-d-1-thiogalactopyranoside (IPTG) and incubated for 18 h at 18°C. Cell pellets were collected and stored at −20°C overnight, then resuspended in a buffer containing 50 mM Tris (pH 8.0), 400 mM sodium chloride, and 1 mM Tris (2-carboxyethyl) phosphine hydrochloride (TCEP), followed by sonication and centrifugation. The supernatant was purified using a His Prep FF 16/10 column (GE Healthcare) and eluted with 500 mM imidazole. Eluted protein was dialyzed overnight at 4°C in a buffer with 50 mM Tris (pH 8.0), 150 mM sodium chloride, and 0.5 mM TCEP in the presence of His-tagged TEV protease. To remove the His tag, the mixture was passed over the His Prep FF 16/10 column again.
The purified proteins listed above were incubated at room temperature with β-lactams or BLIs at a molar ratio of 1:20 for 2 h. The reactions were then quenched with acetonitrile and diluted to 1 mL with 0.1% formic acid in water. Samples were analyzed using a quadrupole time-of-flight (Q-TOF) Waters Synapt-G2-Si electrospray ionization mass spectrometer (ESI-MS) and a Waters Acquity H class ultra-performance liquid chromatography (UPLC) system, equipped with a BEH C18 1.7 µm column (2.1 × 50 mm). The MS was tuned with the following settings: capillary voltage set at 3 kV, sampling cone at 35 V, source offset at 35, source temperature of 100°C, desolvation temperature of 500°C, cone gas flow rate at 100 L/h, desolvation gas flow rate at 800 L/h, and nebulizer set at 6.0. The mobile phases consisted of 0.1% formic acid in water and 0.1% formic acid in 100% acetonitrile, with gradient elution from 10% to 90% of […] over 11 min. The system’s mass accuracy was ±5 Da.

LDT1 = LDT1 (Mycobacterium abscessus, UniProt B1MDC1); assay: Steady-state kinetics with nitrocefin (Ki,app); format: biochemical; settings: for Ki: nitrocefin at 5 × Km, read-out: Ki,app LDT1 (converted)
Protocol: (§4) Steady-state kinetic studies were conducted using purified LDTs and PBPs (LDT1-5, PBP B, PBP-lipo, and DDC) as previously described ([20]). The assays were performed using a BioTek Synergy2 multimode reader in conjunction with Gen5 analysis software. Increasing concentrations of NCF (Δε482 = 17,400 M^⁻¹ cm^⁻¹) were used, while fixed concentrations of the LDTs and PBPs were monitored for changes in absorbance at 482 nm over a time period of 0 to 10 min. To determine reaction velocities, a 0.25 cm path length was employed. The steady-state kinetic parameters (Vmax, kcat, and Km) were obtained by fitting the data to the Henri-Michaelis-Menten equation using a nonlinear least-squares fit in Origin 8.1 software (OriginLab, Northampton, MA). The reaction rate (v) at a given substrate concentration ([S]) was calculated according to the following equations: […]
as §2, with “To determine the apparent inhibition constants (Ki,app) for β-lactams and BLIs, the following experimental condition was employed: NCF as a substrate at a concentration of 5 × Km, LDT/ PBP enzymes with fixed concentration, and β-lactams and BLIs with various concentrations. Changes” for “Changes”
as §3

LDT4 = LDT4 (Mycobacterium abscessus, UniProt B1MKW1); assay: Steady-state kinetics with nitrocefin (Ki,app); format: biochemical; settings: in parentheses in Table 3
Protocol: as §4
as §2, with “To determine the apparent inhibition constants (Ki,app) for β-lactams and BLIs, the following experimental condition was employed: NCF as a substrate at a concentration of 5 × Km, LDT/ PBP enzymes with fixed concentration, and β-lactams and BLIs with various concentrations. Changes” for “Changes”
as §3

LDT2 [4] = target: T1, LDT2; assay: Steady-state kinetics with nitrocefin (Ki,app); format: biochemical; settings: for Ki: nitrocefin at 5 × Km, read-out: Ki,app LDT2 (converted)
Protocol: as §4
as §2, with “To determine the apparent inhibition constants (Ki,app) for β-lactams and BLIs, the following experimental condition was employed: NCF as a substrate at a concentration of 5 × Km, LDT/ PBP enzymes with fixed concentration, and β-lactams and BLIs with various concentrations. Changes” for “Changes”
as §3

PBP-lipo [5] = target: T2, PBP-lipo; assay: Steady-state kinetics with nitrocefin (Ki,app); format: biochemical
Protocol: as §4
as §2, with “To determine the apparent inhibition constants (Ki,app) for β-lactams and BLIs, the following experimental condition was employed: NCF as a substrate at a concentration of 5 × Km, LDT/ PBP enzymes with fixed concentration, and β-lactams and BLIs with various concentrations. Changes” for “Changes”
as §3

Mab ATCC 19977 = assay: Static drug-concentration time-kill (SCTK) assay with CART analysis; format: cell-based, Mycobacterium abscessus; settings: clinically achievable concentrations, over 10 days; AVI 4 mg/L; DUR 12 mg/L + SUL 7 mg/L
[6] = system: Mycobacterium abscessus ATCC 19977 strain; assay: Morphological changes by flow cytometry and confocal microscopy; format: cell-based; settings: clinically relevant unbound concentrations (fCss,ave), 24 h
Protocol: Flow cytometry was employed to evaluate morphological changes in individual bacterial cells following PBP-lipo inactivation after 24 h of β-lactam treatment. The bacterial cells were stained using the BacLight kit L7012 (Thermo Fisher Scientific, Waltham, MA), containing SYTO 9 and propidium iodide (PI). Analysis was performed using a CytoFLEX flow cytometer (Beckman Coulter, CA), with data processed using CytExpert software.
Bacterial morphological changes resulting from PBP-lipo inactivation were investigated using an ImageXpress Micro Confocal Microscope (Molecular Devices, CA). The staining procedures applied to the samples mirrored those used for flow cytometry. Stained bacterial cells were placed in optically clear flat-bottom 96-well plates, and observations were conducted at 60× magnification. Cell length measurements were obtained through automated image analysis using MetaXpress 6 software.

[7] = ATCC19977, Mab ATCC 19977, no BLI added, 30°C, 48 h

Sequence of PBP B (B1MP31 entry or part of it): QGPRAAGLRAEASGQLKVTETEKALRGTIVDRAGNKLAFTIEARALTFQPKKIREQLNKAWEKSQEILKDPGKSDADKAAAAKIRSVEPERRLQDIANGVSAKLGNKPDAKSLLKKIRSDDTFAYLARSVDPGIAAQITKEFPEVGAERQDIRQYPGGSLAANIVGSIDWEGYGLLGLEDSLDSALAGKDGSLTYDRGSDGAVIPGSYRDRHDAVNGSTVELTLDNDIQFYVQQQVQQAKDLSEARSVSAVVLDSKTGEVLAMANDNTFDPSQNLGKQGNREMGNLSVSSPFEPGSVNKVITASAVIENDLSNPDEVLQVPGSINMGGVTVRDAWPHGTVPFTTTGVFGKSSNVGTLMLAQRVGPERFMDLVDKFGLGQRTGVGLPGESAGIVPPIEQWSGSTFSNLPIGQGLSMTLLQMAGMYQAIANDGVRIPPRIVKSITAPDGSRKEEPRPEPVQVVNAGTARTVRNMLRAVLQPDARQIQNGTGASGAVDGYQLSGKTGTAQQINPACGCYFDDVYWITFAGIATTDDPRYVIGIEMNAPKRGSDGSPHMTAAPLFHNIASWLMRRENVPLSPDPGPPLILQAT
T1 sequence (B1MMQ4 entry or part of it): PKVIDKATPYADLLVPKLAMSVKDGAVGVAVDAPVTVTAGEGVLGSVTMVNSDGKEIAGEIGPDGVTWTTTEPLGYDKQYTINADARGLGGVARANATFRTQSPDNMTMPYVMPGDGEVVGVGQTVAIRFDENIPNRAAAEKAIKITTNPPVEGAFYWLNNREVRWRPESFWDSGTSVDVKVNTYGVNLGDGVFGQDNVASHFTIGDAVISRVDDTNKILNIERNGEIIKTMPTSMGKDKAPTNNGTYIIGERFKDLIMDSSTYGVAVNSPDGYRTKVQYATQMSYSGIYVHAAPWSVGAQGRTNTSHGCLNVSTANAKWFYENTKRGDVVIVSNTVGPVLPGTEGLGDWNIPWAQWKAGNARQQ
T2 sequence (B1MDC3 entry or part of it): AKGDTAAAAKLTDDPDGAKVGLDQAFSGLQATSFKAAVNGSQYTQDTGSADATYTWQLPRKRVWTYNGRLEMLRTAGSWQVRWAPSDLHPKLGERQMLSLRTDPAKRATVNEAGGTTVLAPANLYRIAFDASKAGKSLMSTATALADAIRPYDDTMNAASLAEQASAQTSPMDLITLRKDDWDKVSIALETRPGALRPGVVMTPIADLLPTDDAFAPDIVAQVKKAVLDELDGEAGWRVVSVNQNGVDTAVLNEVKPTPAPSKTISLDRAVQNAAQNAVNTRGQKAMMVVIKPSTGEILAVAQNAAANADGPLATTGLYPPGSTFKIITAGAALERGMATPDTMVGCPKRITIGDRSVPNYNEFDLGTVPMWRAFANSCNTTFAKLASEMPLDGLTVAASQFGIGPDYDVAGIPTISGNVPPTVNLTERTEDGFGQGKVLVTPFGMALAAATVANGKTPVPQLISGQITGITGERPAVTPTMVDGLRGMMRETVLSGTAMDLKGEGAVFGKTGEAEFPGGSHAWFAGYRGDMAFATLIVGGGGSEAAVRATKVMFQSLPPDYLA
Sequence of LDT1 (B1MDC1 entry or part of it): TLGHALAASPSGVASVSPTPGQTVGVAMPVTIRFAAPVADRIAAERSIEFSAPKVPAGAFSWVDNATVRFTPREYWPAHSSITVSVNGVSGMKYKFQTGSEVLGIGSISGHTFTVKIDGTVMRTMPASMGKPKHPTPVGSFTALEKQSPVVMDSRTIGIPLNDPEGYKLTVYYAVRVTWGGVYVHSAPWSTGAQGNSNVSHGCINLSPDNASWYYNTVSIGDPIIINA
Sequence of LDT3 (B1MHQ4 entry or part of it): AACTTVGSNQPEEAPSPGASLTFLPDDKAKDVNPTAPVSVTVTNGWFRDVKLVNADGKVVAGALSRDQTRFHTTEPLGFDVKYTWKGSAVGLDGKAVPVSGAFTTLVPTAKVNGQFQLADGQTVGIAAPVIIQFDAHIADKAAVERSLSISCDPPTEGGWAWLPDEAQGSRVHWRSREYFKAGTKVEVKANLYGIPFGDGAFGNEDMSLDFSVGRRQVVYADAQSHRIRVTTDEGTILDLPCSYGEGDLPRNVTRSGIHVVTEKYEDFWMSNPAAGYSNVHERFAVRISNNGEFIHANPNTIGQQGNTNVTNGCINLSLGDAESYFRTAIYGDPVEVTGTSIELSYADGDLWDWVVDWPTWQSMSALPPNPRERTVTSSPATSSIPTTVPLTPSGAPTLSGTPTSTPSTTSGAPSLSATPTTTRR
Sequence of LDT5 (B1MM58 entry or part of it): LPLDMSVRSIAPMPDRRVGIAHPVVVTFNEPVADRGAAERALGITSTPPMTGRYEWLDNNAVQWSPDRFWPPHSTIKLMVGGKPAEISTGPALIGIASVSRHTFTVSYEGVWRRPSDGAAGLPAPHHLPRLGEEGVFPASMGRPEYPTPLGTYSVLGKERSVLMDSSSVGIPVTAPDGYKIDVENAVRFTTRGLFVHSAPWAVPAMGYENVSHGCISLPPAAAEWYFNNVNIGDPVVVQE
Sequence of LDT4 (B1MKW1 entry or part of it): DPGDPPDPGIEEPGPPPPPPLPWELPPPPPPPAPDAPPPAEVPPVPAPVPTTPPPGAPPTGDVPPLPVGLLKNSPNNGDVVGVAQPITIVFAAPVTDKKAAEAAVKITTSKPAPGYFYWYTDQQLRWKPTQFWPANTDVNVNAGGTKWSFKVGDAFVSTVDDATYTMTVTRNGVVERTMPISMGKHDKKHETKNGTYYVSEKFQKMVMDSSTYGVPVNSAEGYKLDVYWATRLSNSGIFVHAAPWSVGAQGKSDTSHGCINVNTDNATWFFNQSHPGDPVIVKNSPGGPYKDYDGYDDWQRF
Sequence of DDC (B1MDJ1 entry or part of it): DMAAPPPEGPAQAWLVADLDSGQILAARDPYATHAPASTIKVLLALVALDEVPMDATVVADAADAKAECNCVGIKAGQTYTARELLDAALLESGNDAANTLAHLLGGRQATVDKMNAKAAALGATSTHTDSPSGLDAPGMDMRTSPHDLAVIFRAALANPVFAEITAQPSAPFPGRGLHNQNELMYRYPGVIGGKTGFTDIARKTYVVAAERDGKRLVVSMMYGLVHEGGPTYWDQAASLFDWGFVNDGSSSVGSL
Sequence of BlaMab (B1MCI3 entry or part of it): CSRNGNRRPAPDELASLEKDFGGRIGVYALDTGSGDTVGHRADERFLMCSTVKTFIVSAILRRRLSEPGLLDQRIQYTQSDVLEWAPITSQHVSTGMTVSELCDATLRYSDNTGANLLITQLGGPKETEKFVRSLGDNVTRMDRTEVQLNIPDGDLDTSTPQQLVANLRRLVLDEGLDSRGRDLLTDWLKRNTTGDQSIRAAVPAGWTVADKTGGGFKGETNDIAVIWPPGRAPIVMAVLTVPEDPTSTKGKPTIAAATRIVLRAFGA

SMILES: NCC[C@H](O)C(=O)N[C@@H]1C[C@H](N)[C@@H](O[C@H]2O[C@H](CN)[C@@H](O)[C@H](O)[C@H]2O)[C@H](O)[C@H]1O[C@H]1O[C@H](CO)[C@@H](O)[C@H](N)[C@H]1O [Amikacin, amikacin]
- MIC (Mab ATCC 19977 strain; [7]): 16 µg/mL (≈ 27.3 µM)
- Average unbound concentration at steady-state ([1]; amikacin doses between 20 and 30 mg/kg): 12 mg/L

SMILES: CCO/N=C(\C(=O)N[C@@H]1C(=O)N2C(C(=O)[O-])=C(Sc3nc(-c4cc[n+](C)cc4)cs3)CS[C@H]12)c1nsc(N)n1 [Ceftaroline, ceftaroline]
- Conformational change of LDT2 (CD spectrum) (LDT2 [2]): altered its secondary structure
- Ki (BlaMab): 681 µM
- Ratio of fCss,avg to Ki,app, DDC (DDC): 0.3
- Ki (PBP B): 2.32 µM
- Ratio of fCss,avg to Ki,app, PBP B (PBP B; in parentheses in Table 3): 5
- Ratio of fCss,avg to Ki,app, LDT5 (LDT5): 0.1
- Binding to PBP-lipo (Bocillin-FL competition) (PBP-lipo [3]): demonstrated binding to PBP-lipo
- Observed MW (+ change in mw), LDT3 (44,795) (LDT3): 44,794 (−) Da
- MIC (Mab ATCC 19977 strain; ATCC19977, 48 h): 16 µg/mL (≈ 26.5 µM)
- MIC, + AVI (4 mg/L) (Mab ATCC 19977 strain; fixed avibactam 4 mg/L): 1 to 2 µg/mL
- MIC, + DUR + SUL (1 mg/L) (Mab ATCC 19977 strain; fixed durlobactam 1 mg/L + sulbactam 1 mg/L): 2 µg/mL
- fCss,avg ([1]; median unbound average steady-state plasma concentration, continuous infusion, daily dose DUR 4,000, AVI 1,500, IPM 4,000, CFT 1,800, AMX 1,500, SULO 1,000, CXM 1,500, SUL 4,000, TBP 1,800 mg): 7 mg/L
- Ratio of fCss,avg to Ki,app, LDT1 (LDT1; in parentheses in Table 3): 14
- Ki (LDT1): 0.827 µM
- Ratio of fCss,avg to Ki,app, LDT4 (LDT4): 0.1
- Ratio of fCss,avg to Ki,app, LDT2 (LDT2 [4]; in parentheses in Table 3): 10
- Ki (LDT2 [4]): 1.16 µM
- Ki (PBP-lipo [5]): 23.2 µM
- Ratio of fCss,avg to Ki,app, PBP-lipo (PBP-lipo [5]; in parentheses in Table 3): 0.5

SMILES: CC1(C)[C@H](C(=O)O)N2C(=O)C[C@H]2S1(=O)=O [Sulbactam, sulbactam]
- Bacterial killing (log10 reduction) in time-kill (Mab ATCC 19977): no bacterial killing
- Morphological change of Mab cells [6]: did not induce noticeable morphological changes
- Ki (PBP B): 55.7 µM
- Ki (LDT1): 643 µM
- Ki (LDT2 [4]): 0.0857 µM

Further lines, results first:

- MIC (Mab ATCC 19977 strain; [7]): 16 µg/mL (≈ 37.4 µM)
SMILES: CO[C@@]1(NC(=O)Cc2cccs2)C(=O)N2C(C(=O)O)=C(COC(N)=O)CS[C@@H]21 [Cefoxitin, cefoxitin]

- MIC (Mab ATCC 19977 strain; [7]): 8 µg/mL (≈ 10.7 µM)
- Steady-state average unbound concentration ([1]; daily dose of 1000 mg): 0.3 mg/L
SMILES: CC[C@H]1OC(=O)[C@H](C)[C@@H](O[C@H]2C[C@@](C)(OC)[C@@H](O)[C@H](C)O2)[C@H](C)[C@@H](O[C@@H]2O[C@H](C)C[C@H](N(C)C)[C@H]2O)[C@](C)(OC)C[C@@H](C)C(=O)[C@H](C)[C@@H](O)[C@]1(C)O [Clarithromycin, clarithromycin]
